According to patent US5126336A, “Antibiotic C-3 catechol-substituted cephalosporin compounds, compositions and method of use thereof” (Bristol-Myers Squibb Company, priority 1990, dated 1992):
Values after ≈ are worked out from the molar mass of the structure shown. Read-outs that look alike come from different tables or passages of the source.

Assays:
Test in all cases: MIC, agar dilution
Type in all cases: cell-based
[1] = test system: S. epidermidis 11-1230; settings: Staphylococcus epidermidis, 111230, Mueller-Hinton agar pH 7.2, 32° C., 18 hr, 10^6 cells/ml
Experimental: (§1) Minimum inhibitory concentrations (MICs) of the present series of cephalosporins were determined against 32 strains of test organisms by two-fold serial agar dilution method in Mueller-Hinton agar. Geometric means of MICs were calculated against six groups of the test organisms which are classified as follows and summarized in Table 1.
(§2) Medium; MuellerHinton agar (pH = 7.2)
(§3) Incubation temperature: 32° C., 18 hr
(§4) Inoculum size; 10^6 cells/ml

[2] = test system: C. terrigena IFO 12685; settings: Mueller-Hinton agar pH 7.2, 32° C., 18 hr, 10^6 cells/ml
Experimental: as §1, §2, §3, §4

[3] = test system: P. aeruginosa IPM-9; settings: Pseudomonas aeruginosa, IPM9, Mueller-Hinton agar pH 7.2, 32° C., 18 hr, 10^6 cells/ml
Experimental: as §1, §2, §3, §4

[4] = test system: M. morgani 1510; settings: Mueller-Hinton agar pH 7.2, 32° C., 18 hr, 10^6 cells/ml
Experimental: as §1, §2, §3, §4

[5] = test system: S. aureus 4-1015 (MRSA); settings: Staphylococcus aureus, Mueller-Hinton agar pH 7.2, 32° C., 18 hr, 10^6 cells/ml
Experimental: as §1, §2, §3, §4

[6] = test system: M. luteus 1001; settings: Micrococcus luteus, Mueller-Hinton agar pH 7.2, 32° C., 18 hr, 10^6 cells/ml
Experimental: as §1, §2, §3, §4

[7] = test system: B. subtilis PCI 219; settings: Bacillus subtilis, PCI219, Mueller-Hinton agar pH 7.2, 32° C., 18 hr, 10^6 cells/ml
Experimental: as §1, §2, §3, §4

[8] = test system: P. aeruginosa KKA 19; settings: Pseudomonas aeruginosa, KKA19, Mueller-Hinton agar pH 7.2, 32° C., 18 hr, 10^6 cells/ml
Experimental: as §1, §2, §3, §4

[9] = test system: P. aeruginosa A20599; settings: Pseudomonas aeruginosa, Mueller-Hinton agar pH 7.2, 32° C., 18 hr, 10^6 cells/ml
Experimental: as §1, §2, §3, §4

[10] = test system: X. maltophilia No. 661; settings: Stenotrophomonas maltophilia, Mueller-Hinton agar pH 7.2, 32° C., 18 hr, 10^6 cells/ml
Experimental: as §1, §2, §3, §4

[11] = test system: P. mirabilis IFO-2849; settings: Proteus mirabilis, IFO2849, Mueller-Hinton agar pH 7.2, 32° C., 18 hr, 10^6 cells/ml
Experimental: as §1, §2, §3, §4

[12] = test system: S. marcescens IPM-16; settings: Serratia marcescens, IPM16, Mueller-Hinton agar pH 7.2, 32° C., 18 hr, 10^6 cells/ml
Experimental: as §1, §2, §3, §4

[13] = test system: S. epidermidis 11-1168; settings: Staphylococcus epidermidis, 111168, Mueller-Hinton agar pH 7.2, 32° C., 18 hr, 10^6 cells/ml
Experimental: as §1, §2, §3, §4

[14] = test system: X. maltophilia GN 12873; settings: Stenotrophomonas maltophilia, GN12873, Mueller-Hinton agar pH 7.2, 32° C., 18 hr, 10^6 cells/ml
Experimental: as §1, §2, §3, §4

[15] = test system: E. faecium A24817; settings: Enterococcus faecium, Mueller-Hinton agar pH 7.2, 32° C., 18 hr, 10^6 cells/ml
Experimental: as §1, §2, §3, §4

[16] = test system: E. cloacae IPM-12; settings: Enterobacter cloacae, IPM12, Mueller-Hinton agar pH 7.2, 32° C., 18 hr, 10^6 cells/ml
Experimental: as §1, §2, §3, §4

[17] = test system: P. aeruginosa IPM-8; settings: Pseudomonas aeruginosa, IPM8, Mueller-Hinton agar pH 7.2, 32° C., 18 hr, 10^6 cells/ml
Experimental: as §1, §2, §3, §4

[18] = test system: K. pneumoniae PCI 602; settings: Klebsiella pneumoniae, PCI602, Mueller-Hinton agar pH 7.2, 32° C., 18 hr, 10^6 cells/ml
Experimental: as §1, §2, §3, §4

[19] = test system: S. marcescens IPM-15; settings: Serratia marcescens, IPM15, Mueller-Hinton agar pH 7.2, 32° C., 18 hr, 10^6 cells/ml
Experimental: as §1, §2, §3, §4

[20] = test system: M. morgani 1510/9; settings: Mueller-Hinton agar pH 7.2, 32° C., 18 hr, 10^6 cells/ml
Experimental: as §1, §2, §3, §4

[21] = test system: E. coli 255; settings: Escherichia coli, Mueller-Hinton agar pH 7.2, 32° C., 18 hr, 10^6 cells/ml
Experimental: as §1, §2, §3, §4

[22] = test system: E. faecalis A9808; settings: Enterococcus faecalis, Mueller-Hinton agar pH 7.2, 32° C., 18 hr, 10^6 cells/ml
Experimental: as §1, §2, §3, §4

[23] = test system: S. aureus IPM-24 (MRSA); settings: Staphylococcus aureus, Mueller-Hinton agar pH 7.2, 32° C., 18 hr, 10^6 cells/ml
Experimental: as §1, §2, §3, §4

[24] = test system: P. cepacia A21213; settings: Burkholderia cepacia, Mueller-Hinton agar pH 7.2, 32° C., 18 hr, 10^6 cells/ml
Experimental: as §1, §2, §3, §4

[25] = test system: P. rettgeri IPM-14; settings: Providencia rettgeri, IPM14, Mueller-Hinton agar pH 7.2, 32° C., 18 hr, 10^6 cells/ml
Experimental: as §1, §2, §3, §4

[26] = test system: P. cepacia No. 651; settings: Burkholderia cepacia, Mueller-Hinton agar pH 7.2, 32° C., 18 hr, 10^6 cells/ml
Experimental: as §1, §2, §3, §4

[27] = test system: P. vulgaris IPM-13; settings: Proteus vulgaris, IPM13, Mueller-Hinton agar pH 7.2, 32° C., 18 hr, 10^6 cells/ml
Experimental: as §1, §2, §3, §4

[28] = test system: C. freundii GN 7391; settings: Citrobacter freundii, GN7391, Mueller-Hinton agar pH 7.2, 32° C., 18 hr, 10^6 cells/ml
Experimental: as §1, §2, §3, §4

[29] = test system: S. aureus 209P; settings: Staphylococcus aureus
Experimental: as §1, §2, §3, §4

[30] = test system: E. coli Juhl A15119; settings: Escherichia coli, JUHLA15119; E. coli Juhl A15119; Mueller-Hinton agar pH 7.2; 32° C., 18 hr; 10^6 cells/ml; read-out: MIC
Method in brief: (§5)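 Two-fold serial agar dilution in Mueller-Hinton agar (pH 7.2), inoculum 10^6 cells/ml, incubated 32° C for 18 hr. In vivo protection measured as PD50 in mice dosed intramuscularly just after bacterial challenge.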

[31] = test system: P. aeruginosa A9843A; settings: Pseudomonas aeruginosa, A9843A, 18 h, pH 7.2
Method in brief: as §5

[32] = test system: S. aureus Smith; settings: Staphylococcus aureus; S. aureus Smith; Mueller-Hinton agar pH 7.2; 32° C., 18 hr; 10^6 cells/ml; read-out: MIC
Method in brief: as §5

SMILES	MIC [1]	MIC [2]	MIC [3]	MIC [4]	MIC [5]	MIC [6]	MIC [7]	MIC [8]	MIC [9]	MIC [10]	MIC [11]	MIC [12]	MIC [13]	MIC [14]	MIC [15]	MIC [16]	MIC [17]	MIC [18]	MIC [19]	MIC [20]	other results
Nc1nc(/C(=N/O)C(=O)NC2C(=O)N3C(C(=O)O)=C(/C=C/Cn4cnc5cc(O)c(O)cc54)CS[C@H]23)cs1 (stereo partly shown) [Ir, 7-[(Z)-2-(2-Aminothiazol-4-yl)-2-hydroxyiminoacetamido]-3-[(E)-3-(5,6-dihydroxybenzimidazol-1-yl)-1-propen-1-yl]-3-cephem-4-carboxylic acid]	12.5 µg/mL (≈ 22.4 µM)	3.1 µg/mL (≈ 5.56 µM)	> 100 µg/mL	25 µg/mL (≈ 44.8 µM)	12.5 µg/mL (≈ 22.4 µM)	0.8 µg/mL (≈ 1.43 µM)	1.6 µg/mL (≈ 2.87 µM)	12.5 µg/mL (≈ 22.4 µM)	12.5 µg/mL (≈ 22.4 µM)	> 100 µg/mL	0.8 µg/mL (≈ 1.43 µM)	> 100 µg/mL	12.5 µg/mL (≈ 22.4 µM)	> 100 µg/mL	> 100 µg/mL	> 100 µg/mL	3.1 µg/mL (≈ 5.56 µM)	0.1 µg/mL (≈ 0.179 µM)	100 µg/mL (≈ 179 µM)	0.8 µg/mL (≈ 1.43 µM)	MIC [21]: 0.8 µg/mL (≈ 1.43 µM); MIC [22]: 12.5 µg/mL (≈ 22.4 µM); MIC [23]: 100 µg/mL (≈ 179 µM); MIC [24]: > 100 µg/mL; MIC [25]: 3.1 µg/mL (≈ 5.56 µM); MIC [26]: > 100 µg/mL; MIC [27]: > 100 µg/mL; MIC [28]: 50 µg/mL (≈ 89.7 µM); MIC ([29]; 209P, 18 h, pH 7.2): 3.1 µg/mL (≈ 5.56 µM); MIC [30]: 0.4 µg/mL (≈ 0.717 µM); MIC [31]: 6.3 µg/mL (≈ 11.3 µM); MIC [32]: 1.6 µg/mL (≈ 2.87 µM)
Nc1nc(/C(=N/O)C(=O)NC2C(=O)N3C(C(=O)O)=C(/C=C/Cn4ccc5cc(=O)c(O)cc-5c4)CS[C@H]23)cs1 (stereo partly shown) [Is, 7-[(Z)-2-(2-Aminothiazol-4-yl)-2-hydroxyiminoacetamido]-3-[(E)-3-(2,6-dihydro-7-hydroxy-6-oxo-isoquinolin-2-yl)-1-propen-1-yl]-3-cephem-4-carboxylic acid]	3.1 µg/mL (≈ 5.45 µM)	1.6 µg/mL (≈ 2.81 µM)	> 100 µg/mL	12.5 µg/mL (≈ 22 µM)	3.1 µg/mL (≈ 5.45 µM)	0.4 µg/mL (≈ 0.703 µM)	0.8 µg/mL (≈ 1.41 µM)	> 100 µg/mL	> 100 µg/mL	> 100 µg/mL	0.4 µg/mL (≈ 0.703 µM)	> 100 µg/mL	6.3 µg/mL (≈ 11.1 µM)	> 100 µg/mL	100 µg/mL (≈ 176 µM)	> 100 µg/mL	> 100 µg/mL	0.1 µg/mL (≈ 0.176 µM)	> 100 µg/mL	0.2 µg/mL (≈ 0.352 µM)	MIC [21]: 0.4 µg/mL (≈ 0.703 µM); MIC [22]: 6.3 µg/mL (≈ 11.1 µM); MIC [23]: 12.5 µg/mL (≈ 22 µM); MIC [24]: > 100 µg/mL; MIC [25]: 1.6 µg/mL (≈ 2.81 µM); MIC [26]: > 100 µg/mL; MIC [27]: > 100 µg/mL; MIC [28]: > 100 µg/mL; MIC ([29]; S. aureus 209P, Mueller-Hinton agar pH 7.2, 32° C., 18 hr, 10^6 cells/ml, read-out: MIC): 0.8 µg/mL (≈ 1.41 µM); MIC [30]: 0.2 µg/mL (≈ 0.352 µM); MIC [31]: > 100 µg/mL; MIC [32]: 0.8 µg/mL (≈ 1.41 µM)
